Measured values taken from patent publication US7785583B2, “In situ maturation of dendritic cells” (Argos Therapeutics, Inc., priority 2002, dated 2010).

Tests used:
[1] = test system: immature DC injected into the ear pinna; test: Migration of CFSE-labelled injected DC to the draining auricular lymph node (flow cytometry); format: in vivo, mice (C57BL/6); conditions: interval between adjuvant application and DC injection extended to 4 hours; determined as in FIG. 3
Method: FIG. 3 depicts flow cytometry analysis of the migration of DC to the draining lymph nodes. Immature or mature DC were transfected with OVA mRNA and incubated with CFSE. Cells were washed and 3×10^5 DC were injected into the ear pinna. […] United States of America). Twenty-four hours post […] of the DC, the draining auricular lymph node was dissected, a cell suspension generated, and cells were analyzed by flow cytometry. To identify the DC subset, cells gated for CD11c^+ granular cells (upper panels) were analyzed for class II expression and CFSE content (lower panels). Injected DC are class II^high CFSE^+ (UR quadroon) whereas the class II^highCFSE^− represent the resident and newly arrived, endogenous, DC (UL quadroon). The percentages shown in the UR quadroons constitute the percentage of CFSE^+ DC injected into the ear found in the lymph node.
Marrow from tibias and femurs of C57BL/6 mice were harvested followed by treatment of the precursors with ammonium chloride Tris buffer for 3 min at 37° C. to deplete the red blood cells. The precursors were plated in RPMI-5% FCS with GM-CSF (15 ng/ml) and IL-4 (10 ng/ml). GM-CSF-containing supernatant was harvested after 24 h capillary culture from GM-CSF producing melanoma cell line (F10.9/GM-CSF) and IL-4 was obtained from Peprotech (Rocky Hill, N.J., United States of America). The concentration of GM-CSF used was determined by ELISA. […]

[2] = test system: OVA-expressing EL-4 cells; test: Induction of OVA-specific CTL in mice immunized with OVA mRNA transfected DC (standard cytotoxicity assay); format: in vivo, mice (C57BL/6)
Method: FIG. 4 is a graph depicting the induction of OVA CTL in mice immunized with OVA mRNA transfected DC. Mice were immunized as described in FIG. 3 except that DC were not stained with CFSE. Splenocytes were harvested after 8 days and either analyzed directly for CTL (left panel) or incubated for 5 days in the presence of OVA mRNA transfected DC (right panel). CTL activity was determined using a standard cytotoxicity assay and OVA-expressing EL-4 cells, and EL-4 cells as targets. (iDC: immature DC; mDC: mature DC; solid gray square: iDC and OVA-expressing EL-4 cells; solid black oval: […] adjuvant and OVA-expressing EL-4 cells; solid black square: mDC and OVA-expressing EL-4 cells; open gray square: iDC and EL4 cells; open black oval: […] adjuvant and EL4 cells; open black square: mDC and EL4 cells). FIG. 5 is a graph depicting the induction of OVA specific CTL with immature DC during in situ maturation with Imiquimod (sold under the trademark […] by 3M of St. Paul, Minn., United States of America) and poly arginine. Experimental details are as described for FIG. 4. Here, in addition to […] adjuvant, Imiquimod ([…] brand) and poly arginine (poly-arg) were used to induce local “inflammation” prior to immunization with the OVA mRNA transfected immature DC. The […] clinically approved cream formulation of Imiquimod was applied to the ear surface 15 minutes prior to DC injection. Poly-arg was injected into the ear pinna (50 μl; 100 μg/ml) 15 minutes prior to DC injection. (open square: iDC; solid circle: […] adjuvant; solid triangle: […] adjuvant; open triangle: iDC+poly-arginine; solid square: mDC). FIG. 6 is a graph depicting the induction of OVA specific CTL with immature DC during in situ maturation with Imiquimod ([…] brand). […] Antigen loaded immature or mature DC were injected into the ear pinna and mice were evaluated for (a) migration of the DC to the draining auricular lymph node or (b) induction of OVA CTL. […] See […], Mohr H., “A fluorescence-based assay for quantitation of lymphokine-activated killer cell activity”, J Immunol Methods (1989) 119:45-51.

[3] = FIG. 5, injection site pretreated 15 minutes prior to injection of OVA mRNA transfected immature DC

| Molecule | migration, % of the injected DC [1] | CTL response (OVA-specific CTL) [2, 3] | CTL response (OVA-specific CTL) ([2]; FIG. 6, Imiquimod (ALDARA brand) applied 4 hours before injection of OVA mRNA transfected immature DC) |
| --- | --- | --- | --- |
| CC(C)Cn1cnc2c(N)nc3ccccc3c21 [Imiquimod] | 9.2% | almost as effective as ADJUPRIME™ adjuvant | more potent CTL response than the ex vivo matured DC |
| poly arginine [poly-arg] | – | the effect of poly-arg is small | – |
